This is an account of results in ChEMBL document CHEMBL1131976, “Syntheses of novel antitumor dihydroxanthone derivatives with inhibitory activity against DNA topoisomerase II” (Bioorg Med Chem Lett, 1999).

In one experiment the target is T1, DNA topoisomerase 2 (Drosophila melanogaster, UniProt P15348).
T1 sequence (P15348 whole entry): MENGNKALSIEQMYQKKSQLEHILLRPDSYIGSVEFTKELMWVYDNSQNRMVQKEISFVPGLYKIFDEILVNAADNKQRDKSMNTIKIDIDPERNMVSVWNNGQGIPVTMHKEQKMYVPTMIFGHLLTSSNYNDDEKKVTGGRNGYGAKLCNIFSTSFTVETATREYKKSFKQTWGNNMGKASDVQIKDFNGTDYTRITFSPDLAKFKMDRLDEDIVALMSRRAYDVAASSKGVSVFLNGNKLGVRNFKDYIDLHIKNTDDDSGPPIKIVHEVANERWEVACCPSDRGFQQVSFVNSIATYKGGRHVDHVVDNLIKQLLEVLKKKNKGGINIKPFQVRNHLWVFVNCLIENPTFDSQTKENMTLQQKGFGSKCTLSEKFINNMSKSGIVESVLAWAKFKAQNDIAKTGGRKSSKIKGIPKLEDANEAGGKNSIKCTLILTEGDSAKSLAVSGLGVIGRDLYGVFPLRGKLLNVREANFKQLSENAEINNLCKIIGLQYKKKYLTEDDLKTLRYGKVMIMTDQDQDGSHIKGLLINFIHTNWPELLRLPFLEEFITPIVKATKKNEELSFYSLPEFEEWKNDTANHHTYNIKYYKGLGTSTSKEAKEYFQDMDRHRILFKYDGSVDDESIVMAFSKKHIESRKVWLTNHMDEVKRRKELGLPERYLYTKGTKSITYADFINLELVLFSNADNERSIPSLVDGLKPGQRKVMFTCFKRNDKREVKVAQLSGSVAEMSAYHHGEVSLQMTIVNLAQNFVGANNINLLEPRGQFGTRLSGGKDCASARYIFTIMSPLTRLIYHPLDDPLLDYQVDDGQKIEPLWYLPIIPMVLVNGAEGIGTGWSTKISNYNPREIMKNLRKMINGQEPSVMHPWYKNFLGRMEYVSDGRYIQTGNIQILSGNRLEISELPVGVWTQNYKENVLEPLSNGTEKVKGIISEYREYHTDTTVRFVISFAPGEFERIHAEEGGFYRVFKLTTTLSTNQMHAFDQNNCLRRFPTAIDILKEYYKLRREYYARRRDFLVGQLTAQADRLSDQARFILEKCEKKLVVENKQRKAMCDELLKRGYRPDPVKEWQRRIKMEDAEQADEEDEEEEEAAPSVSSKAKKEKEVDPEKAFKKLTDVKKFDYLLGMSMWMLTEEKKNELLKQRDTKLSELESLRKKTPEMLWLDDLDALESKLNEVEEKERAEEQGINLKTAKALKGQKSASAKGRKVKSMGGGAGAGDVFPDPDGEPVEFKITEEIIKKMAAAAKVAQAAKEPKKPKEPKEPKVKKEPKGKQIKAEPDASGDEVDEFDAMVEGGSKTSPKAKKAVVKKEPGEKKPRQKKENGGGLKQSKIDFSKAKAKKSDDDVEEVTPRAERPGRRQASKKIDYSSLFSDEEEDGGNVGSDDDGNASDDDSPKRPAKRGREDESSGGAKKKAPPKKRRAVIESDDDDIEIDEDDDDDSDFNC
Description: In vitro inhibitory activity against topoisomerase II (Topo II) by using decatenation assay.

For experiment [1], the system named is HCT-116. In words: In vitro cytotoxic activity against human cancer cell line HCT116 by using MTT assay. Format: functional, cell-based. (Formazan colour is commonly taken as a measure of viable cells.)
The next experiment has as its system K562. Description: In vitro cytotoxic activity against human cancer cell line K562 by using MTT assay. Format: functional, cell-based.
The target in the next experiment is T2, DNA topoisomerase 1 (Mus musculus, UniProt Q04750).
T2 sequence (Q04750 whole entry): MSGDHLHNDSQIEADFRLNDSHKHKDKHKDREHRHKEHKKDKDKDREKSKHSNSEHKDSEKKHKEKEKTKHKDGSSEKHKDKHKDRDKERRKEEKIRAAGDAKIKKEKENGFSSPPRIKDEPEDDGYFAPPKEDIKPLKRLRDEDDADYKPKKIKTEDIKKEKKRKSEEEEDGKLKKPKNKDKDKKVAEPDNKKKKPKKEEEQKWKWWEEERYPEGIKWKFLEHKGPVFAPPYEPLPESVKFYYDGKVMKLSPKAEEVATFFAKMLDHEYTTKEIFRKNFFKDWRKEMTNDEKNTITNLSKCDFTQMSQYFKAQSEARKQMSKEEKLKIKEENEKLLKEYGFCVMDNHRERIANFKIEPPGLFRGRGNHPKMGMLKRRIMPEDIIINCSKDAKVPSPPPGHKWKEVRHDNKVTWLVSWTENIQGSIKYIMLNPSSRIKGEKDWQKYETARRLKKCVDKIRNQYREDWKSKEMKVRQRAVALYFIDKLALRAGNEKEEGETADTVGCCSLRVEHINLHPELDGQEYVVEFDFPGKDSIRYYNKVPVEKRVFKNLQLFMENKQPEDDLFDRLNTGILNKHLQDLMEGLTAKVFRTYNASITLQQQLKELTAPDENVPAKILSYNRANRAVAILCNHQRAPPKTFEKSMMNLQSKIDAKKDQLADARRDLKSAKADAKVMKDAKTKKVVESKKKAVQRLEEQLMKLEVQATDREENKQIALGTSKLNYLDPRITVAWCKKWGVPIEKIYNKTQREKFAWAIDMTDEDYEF
In words: In vitro inhibitory activity against topoisomerase I (Topo I) by using relaxation assay.

The subject of the next experiment is P388. Description: In vitro cytotoxic activity against murine cancer cell line P388 by using MTT assay. Format: functional, cell-based. As to conditions: Mus musculus; call rule not given here.
The test system of experiment [2] is Mus musculus. In words: In vivo antitumor activity against Colon 26 murine tumor model at a dose of 20 mg/kg administered intravenously. As to conditions: route intravenous. The class given is functional.
Experiment [3] concerns Mus musculus. In words: In vivo antitumor activity against Colon 26 murine tumor model at a dose of 10 mg/kg administered intravenously. The class given is functional. The following applies: route intravenous.
Experiment [4] relates to HCT-116. Description: In vitro cytotoxic activity against HCT116 human cancer cell line at 40 uM; IA means Inactive. The class given is functional, cell-based.

Broadly, the IC50 is the point on the concentration scale where inhibition reaches its midpoint. Low readings indicate inhibition by little substance, high ones a need for much substance. For the compound `Cc1cc(O)c2c(c1)O[C@@]1(C(=O)NCCO)C(=CC=C[C@H]1O)C2=O`, the IC50 on DNA topoisomerase 2 amounted to 23 µM; in the experiment with HCT-116 [1], 7.88 µM; in the experiment with K562, 10.6 µM; against DNA topoisomerase 1, 102 µM; in the experiment on P388, 2.67 µM.

With `CNC(=O)[C@]12Oc3cc(C)cc(O)c3C(=O)C1=CC=C[C@H]2O`, the IC50 at DNA topoisomerase 2 was 132 µM; in the experiment on HCT-116 [1] it was 1.13 µM; in the experiment with K562 it was 2.26 µM; on DNA topoisomerase 1 it was over 300 µM; in the experiment with P388, 0.24 µM.

In the case of `Cc1cc(O)c2c(c1)O[C@@]13C(=O)N(C)[C@@H](CC=C1C2=O)[C@H]3O`, the IC50 was over 300 µM against DNA topoisomerase 2, 19.6 µM in the experiment with HCT-116 [1], 6.31 µM in the experiment with K562 and over 300 µM on DNA topoisomerase 1.

`COC(=O)[C@]12Oc3cc(C)cc(O)c3C(=O)C1=CC=C[C@H]2O`: the IC50 against DNA topoisomerase 2 was 2.2 µM; in the experiment with HCT-116 [1], 0.14 µM; in the experiment with K562, 0.32 µM; against DNA topoisomerase 1, 172 µM; in the experiment with P388, 0.024 µM. Also, in the experiment with Mus musculus [2], the Activity was 24%.

On to `Cc1cc(O)c2c(c1)O[C@@]1(C(=O)N(C)C)C(=CC=C[C@H]1O)C2=O`, for which the IC50 in the experiment on HCT-116 [1] was 0.79 µM; with K562 it was 0.98 µM; in the experiment on P388, 0.15 µM.

For `Cc1cc(O)c2c(c1)O[C@@]1(C(N)=O)C(=CC=C[C@H]1O)C2=O`, the IC50 at DNA topoisomerase 2 amounted to 29 µM; with HCT-116 [1], 0.33 µM; in the experiment with K562, 0.59 µM; against DNA topoisomerase 1, 63 µM; with P388, 0.052 µM. The same compound registered an Activity in the experiment with Mus musculus [3] of 42%.

As to `Cc1cc(O)c2c(=O)c3ccccc3oc2c1`, in the experiment on HCT-116 [4], the IC50 entry is listed as “Not Active”.

`Cc1cc(O)c2c(c1)O[C@@]1(C(=O)N3CCCC3)C(=CC=C[C@H]1O)C2=O`: the 50% inhibitory concentration (IC50) amounted to 1.64 µM in the experiment on HCT-116 [1], 1.52 µM in the experiment with K562 and 0.56 µM in the experiment on P388.
